Data: the supplement of paper PMC5762512
Each block holds one compound with its values, some of them ahead of it.

How the values were obtained:
Assay in all cases: IC50 cell viability (Alamar Blue, 96 h)
11060 = system: 11060
Protocol: (§1)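 Cells in log-phase growth were seeded in 96-well plates and treated with drug for 96 h at 37°C using 8-point serial dilutions from 0.0025 to 10 µM. Viability was read by Alamar Blue fluorescence after 6 h and normalised to positive and vehicle (DMSO) controls. IC50 values were fitted in ActivityBase; the value given is the mean of two independent experiments.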

WI-38 = system: WI-38
Protocol: as §1

PER-624 = system: PER-624
Protocol: as §1

TY82 = system: TY82
Protocol: as §1

HCC2429 = system: HCC2429
Protocol: as §1

10326 = system: 10326
Protocol: as §1

PER-891 = system: PER-891
Protocol: as §1

TC797 = system: TC797
Protocol: as §1

PER-403 = system: PER-403
Protocol: as §1

14169 = system: 14169
Protocol: as §1

CAKI-1 = system: CAKI-1
Protocol: as §1

RPMI2650 = system: RPMI2650
Protocol: as §1

HS-27 = system: HS-27
Protocol: as §1

PER-704 = system: PER-704
Protocol: as §1

PER-536 = system: PER-536
Protocol: as §1

P896-CL = system: P896-CL
Protocol: as §1

8645 = system: 8645
Protocol: as §1

PER-535 = system: PER-535
Protocol: as §1

PER-712 = system: PER-712
Protocol: as §1

A549 = system: A549
Protocol: as §1

IC50 cell viability (HCC2429): < 2.5 nM
IC50 cell viability (A549): < 2.5 nM
SMILES: CC(=O)O[C@@]12CO[C@@H]1C[C@H](O)[C@@]1(C)C(=O)[C@H](O)C3=C(C)[C@@H](OC(=O)[C@H](O)[C@@H](NC(=O)OC(C)(C)C)c4ccccc4)C[C@@](O)([C@@H](OC(=O)c4ccccc4)[C@H]21)C3(C)C [Docetaxel]
IC50 cell viability 11060: < 2.5 nM
IC50 cell viability (WI-38): 2.82 nM
IC50 cell viability (PER-624): < 2.5 nM
IC50 cell viability (TY82): 9.64 nM
IC50 cell viability 10326: < 2.5 nM
IC50 cell viability (PER-891): > 10000 nM
IC50 cell viability (TC797): 3.88 nM
IC50 cell viability (PER-403): < 2.5 nM
IC50 cell viability 14169: < 2.5 nM
IC50 cell viability (CAKI-1): 5000 nM
IC50 cell viability (RPMI2650): > 10000 nM
IC50 cell viability (HS-27): < 2.5 nM
IC50 cell viability (PER-704): 4.11 nM
IC50 cell viability (PER-536): 16.4 nM
IC50 cell viability (P896-CL): 3.08 nM
IC50 cell viability 8645: < 2.5 nM
IC50 cell viability (PER-535): 6.25 nM
IC50 cell viability (PER-712): 3.2 nM

SMILES: C/C(=C\c1csc(C)n1)[C@@H]1C[C@@H]2O[C@]2(C)CCC[C@H](C)[C@H](O)[C@@H](C)C(=O)C(C)(C)[C@@H](O)CC(=O)O1 [Epothilone B]
IC50 cell viability 11060: < 2.5 nM
IC50 cell viability (WI-38): < 2.5 nM
IC50 cell viability (PER-624): < 2.5 nM
IC50 cell viability (TY82): 9.79 nM
IC50 cell viability (HCC2429): < 2.5 nM
IC50 cell viability 10326: < 2.5 nM
IC50 cell viability (PER-891): 5010 nM
IC50 cell viability (TC797): 3.41 nM
IC50 cell viability (PER-403): < 2.5 nM
IC50 cell viability 14169: < 2.5 nM
IC50 cell viability (CAKI-1): 16.2 nM
IC50 cell viability (RPMI2650): > 10000 nM
IC50 cell viability (HS-27): < 2.5 nM
IC50 cell viability (PER-704): 3.8 nM
IC50 cell viability (PER-536): 7.59 nM
IC50 cell viability (P896-CL): 3.22 nM
IC50 cell viability 8645: < 2.5 nM
IC50 cell viability (PER-535): 3.27 nM
IC50 cell viability (PER-712): < 2.5 nM
IC50 cell viability (A549): < 2.5 nM

IC50 cell viability (HCC2429): > 10000 nM
IC50 cell viability (A549): 2740 nM
SMILES: C#Cc1cccc(Nc2ncnc3cc(OCCOC)c(OCCOC)cc23)c1 [Erlotinib]
IC50 cell viability 11060: 8680 nM
IC50 cell viability (WI-38): 3120 nM
IC50 cell viability (PER-624): 3260 nM
IC50 cell viability (TY82): > 10000 nM
IC50 cell viability 10326: > 10000 nM
IC50 cell viability (PER-891): 7100 nM
IC50 cell viability (TC797): > 10000 nM
IC50 cell viability (PER-403): 8770 nM
IC50 cell viability 14169: > 10000 nM
IC50 cell viability (CAKI-1): > 10000 nM
IC50 cell viability (RPMI2650): > 10000 nM
IC50 cell viability (HS-27): 4470 nM
IC50 cell viability (PER-704): > 10000 nM
IC50 cell viability (PER-536): > 10000 nM
IC50 cell viability (P896-CL): 2580 nM
IC50 cell viability 8645: 1160 nM
IC50 cell viability (PER-535): > 10000 nM
IC50 cell viability (PER-712): > 10000 nM

IC50 cell viability (HCC2429): 40.3 nM
IC50 cell viability (A549): 61 nM
SMILES: CN1CC[C@H](c2c(O)cc(O)c3c(=O)cc(-c4ccccc4Cl)oc23)[C@H](O)C1 [Flavopiridol]
IC50 cell viability 11060: 27.2 nM
IC50 cell viability (WI-38): 84.6 nM
IC50 cell viability (PER-624): 42.8 nM
IC50 cell viability (TY82): 64.7 nM
IC50 cell viability 10326: 25.4 nM
IC50 cell viability (PER-891): 69.5 nM
IC50 cell viability (TC797): 84.4 nM
IC50 cell viability (PER-403): 46.6 nM
IC50 cell viability 14169: 24.8 nM
IC50 cell viability (CAKI-1): 122 nM
IC50 cell viability (RPMI2650): 140 nM
IC50 cell viability (HS-27): 108 nM
IC50 cell viability (PER-704): 70.8 nM
IC50 cell viability (PER-536): 273 nM
IC50 cell viability (P896-CL): 24.8 nM
IC50 cell viability 8645: 17.7 nM
IC50 cell viability (PER-535): 131 nM
IC50 cell viability (PER-712): 82.5 nM

IC50 cell viability (HCC2429): > 10000 nM
IC50 cell viability (A549): > 10000 nM
SMILES: CCCOc1ccn2c(C(C)=O)cc(-c3ccccc3S(C)(=O)=O)c2c1 [GSK-2801]
IC50 cell viability 11060: > 10000 nM
IC50 cell viability (WI-38): > 10000 nM
IC50 cell viability (PER-624): > 10000 nM
IC50 cell viability (TY82): > 10000 nM
IC50 cell viability 10326: > 10000 nM
IC50 cell viability (PER-891): > 10000 nM
IC50 cell viability (TC797): > 10000 nM
IC50 cell viability (PER-403): > 10000 nM
IC50 cell viability 14169: > 10000 nM
IC50 cell viability (CAKI-1): > 10000 nM
IC50 cell viability (RPMI2650): > 10000 nM
IC50 cell viability (HS-27): > 10000 nM
IC50 cell viability (PER-704): > 10000 nM
IC50 cell viability (PER-536): > 10000 nM
IC50 cell viability (P896-CL): > 10000 nM
IC50 cell viability 8645: > 10000 nM
IC50 cell viability (PER-535): > 10000 nM
IC50 cell viability (PER-712): > 10000 nM

IC50 cell viability (HCC2429): > 10000 nM
IC50 cell viability (A549): 2740 nM
SMILES: COc1cc2ncnc(Nc3ccc(F)c(Cl)c3)c2cc1OCCCN1CCOCC1 [Gefitinib]
IC50 cell viability 11060: 5370 nM
IC50 cell viability (WI-38): 5190 nM
IC50 cell viability (PER-624): 2210 nM
IC50 cell viability (TY82): > 10000 nM
IC50 cell viability 10326: 5890 nM
IC50 cell viability (PER-891): 6540 nM
IC50 cell viability (TC797): > 10000 nM
IC50 cell viability (PER-403): > 10000 nM
IC50 cell viability 14169: 6050 nM
IC50 cell viability (CAKI-1): > 10000 nM
IC50 cell viability (RPMI2650): > 10000 nM
IC50 cell viability (HS-27): 7850 nM
IC50 cell viability (PER-704): > 10000 nM
IC50 cell viability (PER-536): > 10000 nM
IC50 cell viability (P896-CL): 1450 nM
IC50 cell viability (PER-535): > 10000 nM
IC50 cell viability (PER-712): > 10000 nM
